Literature values as cited in patent US20250375396A1 (priority 2016, published 2025).
Where a name gives a salt, the structure may show the parent alone.

conditions: not given

Row | Compound | pKa
1 | O=C([O-])[O-].[Na+].[Na+] [Sodium carbonate] | 10.3

same assay, conditions: conjugated acid amine

Row | Compound | Equilibrium Constant of Acid Amine (pKa(acid amine))
2 | COC(=O)C(c1ccccc1)C1CCCCN1 (stereo not drawn) [Methyl phenidate HCl] | 8.77
3 | CCN(C)C(=O)Oc1cccc([C@H](C)N(C)C)c1 [Rivastigmine HCl] | 8.85
4 | CCCN(CCC)CCc1cccc2c1CC(=O)N2 [Ropinirole HCl] | 9.68
5 | CCCN(CCc1cccs1)[C@H]1CCc2c(O)cccc2C1 [Rotigotine HCl] | 7.90
6 | CCOc1ccccc1OCCN[C@H](C)Cc1ccc(OC)c(S(N)(=O)=O)c1 [Tamsulosin HCl] | 8.37
